Experimental data reported in PubChem BioAssay (NCI).
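Following 48 hours of exposure in 96-well plates, responses at five concentrations were used to interpolate endpoints linearly. GI50 = concentration required for 50% inhibition of growth. TGI: total growth inhibition.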

How the values were obtained:
Experiment in all cases: NCI-60 cell line screen, 48 h
786-0 renal = test system: 786-0 renal
A498 renal = test system: A498 renal
A549 NSCLC = test system: A549 NSCLC
ACHN renal = test system: ACHN renal
BT-549 breast = test system: BT-549 breast
CAKI-1 renal = test system: CAKI-1 renal
CCRF-CEM leukemia = test system: CCRF-CEM leukemia
COLO 205 colon = test system: COLO 205 colon
DU-145 prostate = test system: DU-145 prostate
HCC-2998 colon = test system: HCC-2998 colon
HCT-116 colon = test system: HCT-116 colon
HCT-15 colon = test system: HCT-15 colon
HL-60(TB) leukemia = test system: HL-60(TB) leukemia
HOP-62 NSCLC = test system: HOP-62 NSCLC
HOP-92 NSCLC = test system: HOP-92 NSCLC
HS 578T breast = test system: HS 578T breast
HT29 colon = test system: HT29 colon
IGROV1 ovarian = test system: IGROV1 ovarian
K-562 leukemia = test system: K-562 leukemia
KM12 colon = test system: KM12 colon
LOX IMVI melanoma = test system: LOX IMVI melanoma
M14 melanoma = test system: M14 melanoma
MALME-3M melanoma = test system: MALME-3M melanoma
MCF7 breast = test system: MCF7 breast
MDA-MB-231 breast = test system: MDA-MB-231 breast
MDA-MB-435 = test system: MDA-MB-435
MOLT-4 leukemia = test system: MOLT-4 leukemia
NCI-H226 lung = test system: NCI-H226 lung
NCI-H23 lung = test system: NCI-H23 lung
NCI-H460 lung = test system: NCI-H460 lung
NCI-H522 lung = test system: NCI-H522 lung
NCI/ADR-RES ovarian = test system: NCI/ADR-RES ovarian
OVCAR-3 ovarian = test system: OVCAR-3 ovarian
OVCAR-4 ovarian = test system: OVCAR-4 ovarian
OVCAR-5 ovarian = test system: OVCAR-5 ovarian
OVCAR-8 ovarian = test system: OVCAR-8 ovarian
PC-3 prostate = test system: PC-3 prostate
RPMI-8226 leukemia = test system: RPMI-8226 leukemia
RXF 393 renal = test system: RXF 393 renal
SF-268 CNS = test system: SF-268 CNS
SF-295 CNS = test system: SF-295 CNS
SF-539 CNS = test system: SF-539 CNS
SK-MEL-2 melanoma = test system: SK-MEL-2 melanoma
SK-MEL-28 melanoma = test system: SK-MEL-28 melanoma
SK-MEL-5 melanoma = test system: SK-MEL-5 melanoma
SK-OV-3 ovarian = test system: SK-OV-3 ovarian
SN12C renal = test system: SN12C renal
SNB-19 CNS = test system: SNB-19 CNS
SNB-75 CNS = test system: SNB-75 CNS
SR leukemia = test system: SR leukemia
SW-620 colon = test system: SW-620 colon
T-47D breast = test system: T-47D breast
TK-10 renal = test system: TK-10 renal
U251 CNS = test system: U251 CNS
UACC-257 melanoma = test system: UACC-257 melanoma
UACC-62 melanoma = test system: UACC-62 melanoma
UO-31 renal = test system: UO-31 renal

COc1ccccc1CCN=C1NC(=O)/C(=C/c2ccc3ncccc3c2)S1
GI50 (786-0 renal): 8.24 µM
TGI (786-0 renal): > 25 µM
GI50 (A498 renal): 3.45 µM
TGI (A498 renal): 12.3 µM
GI50 (A549 NSCLC): 5.93 µM
TGI (A549 NSCLC): > 25 µM
GI50 (ACHN renal): 5.98 µM
TGI (ACHN renal): 24.5 µM
GI50 (BT-549 breast): 6.22 µM
TGI (BT-549 breast): > 20.5 µM
GI50 (CAKI-1 renal): 3.52 µM
TGI (CAKI-1 renal): > 15.6 µM
GI50 (CCRF-CEM leukemia): 5.45 µM
TGI (CCRF-CEM leukemia): 23 µM
GI50 (COLO 205 colon): 2.86 µM
TGI (COLO 205 colon): > 19.6 µM
GI50 (DU-145 prostate): 7.97 µM
TGI (DU-145 prostate): > 25 µM
GI50 (HCC-2998 colon): 8.7 µM
TGI (HCC-2998 colon): > 25 µM
GI50 (HCT-116 colon): 1.63 µM
TGI (HCT-116 colon): > 12.4 µM
GI50 (HCT-15 colon): 1.32 µM
TGI (HCT-15 colon): > 25 µM
GI50 (HL-60(TB) leukemia): 4.2 µM
TGI (HL-60(TB) leukemia): 14.7 µM
GI50 (HOP-62 NSCLC): 8.17 µM
TGI (HOP-62 NSCLC): > 25 µM
GI50 (HOP-92 NSCLC): 6.02 µM
TGI (HOP-92 NSCLC): 22.1 µM
GI50 (HS 578T breast): 7.39 µM
TGI (HS 578T breast): > 18.1 µM
GI50 (HT29 colon): 2.47 µM
TGI (HT29 colon): 15.7 µM
GI50 (IGROV1 ovarian): 4.87 µM
TGI (IGROV1 ovarian): 19.6 µM
GI50 (K-562 leukemia): 1.37 µM
TGI (K-562 leukemia): > 25 µM
GI50 (KM12 colon): 3.34 µM
TGI (KM12 colon): > 25 µM
GI50 (LOX IMVI melanoma): 3.15 µM
TGI (LOX IMVI melanoma): 18.2 µM
GI50 (M14 melanoma): 8.41 µM
TGI (M14 melanoma): > 25 µM
GI50 (MALME-3M melanoma): 7.44 µM
TGI (MALME-3M melanoma): > 23 µM
GI50 (MCF7 breast): 1.63 µM
TGI (MCF7 breast): > 23.9 µM
GI50 (MDA-MB-231 breast): 9.39 µM
TGI (MDA-MB-231 breast): > 25 µM
GI50 (MDA-MB-435): 1.43 µM
TGI (MDA-MB-435): > 25 µM
GI50 (MOLT-4 leukemia): 6.42 µM
TGI (MOLT-4 leukemia): 15.7 µM
GI50 (NCI-H226 lung): 7.28 µM
TGI (NCI-H226 lung): 24.7 µM
GI50 (NCI-H23 lung): 8.56 µM
TGI (NCI-H23 lung): > 25 µM
GI50 (NCI-H460 lung): 6.05 µM
TGI (NCI-H460 lung): > 25 µM
GI50 (NCI-H522 lung): 2.36 µM
TGI (NCI-H522 lung): 7.54 µM
GI50 (NCI/ADR-RES ovarian): 6.21 µM
TGI (NCI/ADR-RES ovarian): > 25 µM
GI50 (OVCAR-3 ovarian): 4.99 µM
TGI (OVCAR-3 ovarian): 12.2 µM
GI50 (OVCAR-4 ovarian): 4.27 µM
TGI (OVCAR-4 ovarian): 20.5 µM
GI50 (OVCAR-5 ovarian): 7.06 µM
TGI (OVCAR-5 ovarian): > 23.1 µM
GI50 (OVCAR-8 ovarian): 6.75 µM
TGI (OVCAR-8 ovarian): > 25 µM
GI50 (PC-3 prostate): 4.54 µM
TGI (PC-3 prostate): > 25 µM
GI50 (RPMI-8226 leukemia): 4.33 µM
TGI (RPMI-8226 leukemia): 19.6 µM
GI50 (RXF 393 renal): 5.5 µM
TGI (RXF 393 renal): 16.9 µM
GI50 (SF-268 CNS): 7.54 µM
TGI (SF-268 CNS): > 25 µM
GI50 (SF-295 CNS): 5.86 µM
TGI (SF-295 CNS): > 21.8 µM
GI50 (SF-539 CNS): 4.48 µM
TGI (SF-539 CNS): 15.7 µM
GI50 (SK-MEL-2 melanoma): 6.57 µM
TGI (SK-MEL-2 melanoma): 13.5 µM
GI50 (SK-MEL-28 melanoma): 8.22 µM
TGI (SK-MEL-28 melanoma): > 25 µM
GI50 (SK-MEL-5 melanoma): 5.92 µM
TGI (SK-MEL-5 melanoma): 17.6 µM
GI50 (SK-OV-3 ovarian): 5.67 µM
TGI (SK-OV-3 ovarian): 14.4 µM
GI50 (SN12C renal): 6.93 µM
TGI (SN12C renal): > 25 µM
GI50 (SNB-19 CNS): 4.93 µM
TGI (SNB-19 CNS): > 25 µM
GI50 (SNB-75 CNS): 3.71 µM
TGI (SNB-75 CNS): > 19.2 µM
GI50 (SR leukemia): 0.743 µM
TGI (SR leukemia): 3.02 µM
GI50 (SW-620 colon): 1.32 µM
TGI (SW-620 colon): > 25 µM
GI50 (T-47D breast): 6.76 µM
TGI (T-47D breast): > 23.1 µM
GI50 (TK-10 renal): 4.48 µM
TGI (TK-10 renal): > 21.7 µM
GI50 (U251 CNS): 4.1 µM
TGI (U251 CNS): 24.9 µM
GI50 (UACC-257 melanoma): 7.52 µM
TGI (UACC-257 melanoma): > 25 µM
GI50 (UACC-62 melanoma): 6.1 µM
TGI (UACC-62 melanoma): > 25 µM
GI50 (UO-31 renal): 5.25 µM
TGI (UO-31 renal): 16.3 µM
